Consider 13 compounds from patent publication US20260274892A1, “MACROCYCLIC BROAD SPECTRUM ANTIBIOTICS” (RQx Pharmaceuticals, Inc., priority 2017, published 2026).

The test system of one experiment is Escherichia coli ATCC 25922. Description: Minimum inhibitory concentration (MIC), CLSI broth micro-dilution, E. coli. In kind it is cell-based. The conditions noted are these: Escherichia coli, ATCC25922, 22 h, Table 6, cation adjusted Mueller Hinton Broth + 0.002% Tween-80, 35° C. The method, boiled down: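 Colonies grown 20 h at 35° C on Trypticase Soy agar (MRSA) or Luria agar (E. coli) were suspended in cation-adjusted Mueller Hinton broth with 0.002% Tween-80. Suspensions were added at OD600 0.0005 to 10-point twofold compound dilutions, then incubated 22 h at 35° C.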
As for `Cc1nc(-c2ccc(OC3CCCCC3)cc2)cc(N)c1C(=O)N[C@@H](CCN)C(=O)N(C)[C@@H]1C(=O)N[C@@H](C)C(=O)N[C@H](C(=O)NCC#N)Cc2ccc(OCCN)c(c2)-c2cc1ccc2OCCN` (racemic) [Compound 544, rac-(8S,11S,14S)-3,18-bis(2-aminoethoxy)-N-(cyanomethyl)-11-methyl-14-[methyl-[rac-(2S)-4-amino-2-[[4-amino-6-[4-(cyclohexoxy)phenyl]-2-methyl-pyridine-3-carbonyl]amino]butanoyl]amino]-10,13-dioxo-9,12-diazatricyclo[13.3.1.12,6]icosa-1(18),2(20),3,5,15(19),16-hexaene-8-carboxamide], the MIC (commonly the lowest concentration that inhibits growth of the organism) was determined as 0.13 µM.

Staying with this experiment, now noted: Escherichia coli, ATCC25922, 22 h, Table 7, cation adjusted Mueller Hinton Broth + 0.002% Tween-80, 35° C.
With `Cc1nc(-c2ccc(C(C)(C)C)cc2)nc(C)c1C(=O)N[C@@H](CCN)C(=O)N(C)[C@@H]1C(=O)N[C@@H](C)C(=O)N[C@H](C(=O)NCC#N)Cc2ccc(OCCN)c(c2)-c2cc1ccc2OC[C@H](O)CN` (racemic) [Compound 571, rac-(8S,11S,14S)-3-(2-aminoethoxy)-N-(cyanomethyl)-11-methyl-14-[methyl-[rac-(2S)-4-amino-2-[[2-(4-tert-butylphenyl)-4,6-dimethyl-pyrimidine-5-carbonyl]amino]butanoyl]amino]-10,13-dioxo-18-[rac-(2R)-3-amino-2-hydroxy-propoxy]-9,12-diazatricyclo[13.3.1.12,6]icosa-1(18),2(20),3,5,15(19),16-hexaene-8-carboxamide], the minimum inhibitory concentration (MIC) is 0.094 µM.
On the same count and under the same terms, the value for `COc1c(NCCN)cc2cc1-c1cc(ccc1O)C[C@@H](C(=O)NCC#N)NC(=O)[C@H](C)NC(=O)[C@H]2N(C)C(=O)[C@H](CCN)NC(=O)c1c(C)nc(-c2ccc(C(C)(C)C)cc2)nc1C` [Compound 630, (8S,11S,14S)-14-[[(2S)-4-amino-2-[[2-(4-tert-butylphenyl)-4,6-dimethyl-pyrimidine-5-carbonyl]amino]butanoyl]-methyl-amino]-17-(2-aminoethylamino)-N-(cyanomethyl)-3-hydroxy-18-methoxy-11-methyl-10,13-dioxo-9,12-diazatricyclo[13.3.1.12,6]icosa-1(18),2(20),3,5,15(19),16-hexaene-8-carboxamide] was 0.25 µM; that for `Cc1nc(-c2ccc(C(C)(C)C)cc2)nc(C)c1C(=O)N[C@@H](CCN)C(=O)N(C)[C@@H]1C(=O)N[C@@H](C)C(=O)N[C@H](C(=O)NCC#N)Cc2ccc(OCCN)c(c2)-c2cc1cc(OCCN)c2O` [Compound 583, (8S,11S,14S)-14-[[(2S)-4-amino-2-[[2-(4-tert-butylphenyl)-4,6-dimethyl-pyrimidine-5-carbonyl]amino]butanoyl]-methyl-amino]-3,17-bis(2-aminoethoxy)-N-(cyanomethyl)-18-hydroxy-11-methyl-10,13-dioxo-9,12-diazatricyclo[13.3.1.12,6]icosa-1(18),2(20),3,5,15(19),16-hexaene-8-carboxamide] was 0.17 µM.

The experiment is the same for the next values; noted with them: Escherichia coli, ATCC25922, Table 6, cation adjusted Mueller Hinton Broth + 0.002% Tween-80, 35° C., 22 hours.
As to `Cc1nc(-c2ccc(C(C)(C)C)cc2)ncc1C(=O)N[C@@H](CCNCC(N)=O)C(=O)N(C)[C@@H]1C(=O)N[C@@H](C)C(=O)N[C@H](C(=O)NCC#N)Cc2ccc(OCCN)c(c2)-c2cc1ccc2OCCN` (racemic) [Compound 493, rac-(8S,11S,14S)-3,18-bis(2-aminoethoxy)-N-(cyanomethyl)-11-methyl-14-[methyl-[rac-(2S)-4-[(2-amino-2-oxo-ethyl)amino]-2-[[2-(4-tert-butylphenyl)-4-methyl-pyrimidine-5-carbonyl]amino]butanoyl]amino]-10,13-dioxo-9,12-diazatricyclo[13.3.1.12,6]icosa-1(18),2(20),3,5,15(19),16-hexaene-8-carboxamide], the MIC is 1 µM.
For `CCCCCCCCc1ccc(C(=O)N[C@@H](CCNS(N)(=O)=O)C(=O)N(C)[C@@H]2C(=O)N[C@@H](C)C(=O)N[C@H](C(=O)NCC#N)Cc3ccc(OCCN)c(c3)-c3cc2ccc3OCCN)c(C)c1` (racemic) [Compound 449, rac-(8S,11S,14S)-3,18-bis(2-aminoethoxy)-N-(cyanomethyl)-11-methyl-14-[methyl-[rac-(2S)-2-[(2-methyl-4-octyl-benzoyl)amino]-4-(sulfamoylamino)butanoyl]amino]-10,13-dioxo-9,12-diazatricyclo[13.3.1.12,6]icosa-1(18),2(20),3,5,15(19),16-hexaene-8-carboxamide], the minimum inhibitory concentration (MIC) is 0.5 µM.
Take `Cc1nc(-c2ccc(C(C)(C)C)cc2)ncc1C(=O)N[C@@H](CCN)C(=O)N(C)[C@@H]1C(=O)N[C@@H](C)C(=O)N[C@H](C(=O)NCC#N)Cc2ccc(OCCN(C)C)c(c2)-c2cc1ccc2OCCN(C)C` (racemic) [Compound 442, rac-(8S,11S,14S)-N-(cyanomethyl)-3,18-bis[2-(dimethylamino)ethoxy]-11-methyl-14-[methyl-[rac-(2S)-4-amino-2-[[2-(4-tert-butylphenyl)-4-methyl-pyrimidine-5-carbonyl]amino]butanoyl]amino]-10,13-dioxo-9,12-diazatricyclo[13.3.1.12,6]icosa-1(18),2(20),3,5,15(19),16-hexaene-8-carboxamide]: the minimum inhibitory concentration (MIC) worked out at 0.91 µM.
Regarding `CNC(=N)NCCOc1ccc2cc1-c1cc(ccc1OCCNC(=N)NC)[C@H](N(C)C(=O)[C@H](CCN)NC(=O)c1c(C)nc(-c3ccc(C(C)(C)C)cc3)nc1C)C(=O)N[C@@H](C)C(=O)N[C@H](C(=O)NCC#N)C2` (racemic) [Compound 441, rac-(8S,11S,14S)-N-(cyanomethyl)-11-methyl-3,18-bis[2-[(N-methylcarbamimidoyl)amino]ethoxy]-14-[methyl-[rac-(2S)-4-amino-2-[[2-(4-tert-butylphenyl)-4,6-dimethyl-pyrimidine-5-carbonyl]amino]butanoyl]amino]-10,13-dioxo-9,12-diazatricyclo[13.3.1.12,6]icosa-1(18),2(20),3,5,15(19),16-hexaene-8-carboxamide], the MIC turned out to be 0.38 µM.
`CCCCCCCCc1ccc(C(=O)N[C@@H](CCCNC(N)=O)C(=O)N(C)[C@@H]2C(=O)N[C@@H](C)C(=O)N[C@H](C(=O)NCC#N)Cc3ccc(OCCN)c(c3)-c3cc2ccc3OCCN)c(C)c1` (racemic) [Compound 450, rac-(8S,11S,14S)-3,18-bis(2-aminoethoxy)-N-(cyanomethyl)-11-methyl-14-[methyl-[rac-(2S)-2-[(2-methyl-4-octyl-benzoyl)amino]-5-ureido-pentanoyl]amino]-10,13-dioxo-9,12-diazatricyclo[13.3.1.12,6]icosa-1(18),2(20),3,5,15(19),16-hexaene-8-carboxamide]: the MIC is 2.1 µM.
The same measure, in the same setting: the value for `CCCCCCc1ccc(C(=O)N2C[C@H](N)CC2C(=O)N(C)[C@@H]2C(=O)N[C@@H](C)C(=O)N[C@H](C(=O)NCC#N)Cc3ccc(OCCN)c(c3)-c3cc2ccc3OCCN)c(C)c1` (mixture of isomers) [Compound 481, rac-(8S,11S,14S)-3,18-bis(2-aminoethoxy)-14-[[4-amino-1-(4-hexyl-2-methyl-benzoyl)pyrrolidine-2-carbonyl]-methyl-amino]-N-(cyanomethyl)-11-methyl-10,13-dioxo-9,12-diazatricyclo[13.3.1.12,6]icosa-1(18),2(20),3,5,15(19),16-hexaene-8-carboxamide] was 2.3 µM.

Still in this experiment, the particulars now being: Escherichia coli, ATCC25922, Table 7, cation adjusted Mueller Hinton Broth + 0.002% Tween-80, 35° C., 22 hours.
Turning to `Cc1nc(-c2ccc(C(C)(C)C)cc2)nc(C)c1C(=O)N[C@@H](CCN)C(=O)N(C)[C@@H]1C(=O)N[C@@H](C)C(=O)N[C@H](C(=O)NCC#N)Cc2cc(c(O)cc2CN)-c2cc1ccc2OCCN` (racemic) [Compound 626, rac-(8S,11S,14S)-18-(2-aminoethoxy)-5-(aminomethyl)-N-(cyanomethyl)-3-hydroxy-11-methyl-14-[methyl-[rac-(2S)-4-amino-2-[[2-(4-tert-butylphenyl)-4,6-dimethyl-pyrimidine-5-carbonyl]amino]butanoyl]amino]-10,13-dioxo-9,12-diazatricyclo[13.3.1.12,6]icosa-1(18),2(20),3,5,15(19),16-hexaene-8-carboxamide], the MIC is 0.25 µM.
Regarding `Cc1nc(-c2ccc(C(C)(C)C)cc2)nc(C)c1C(=O)N[C@@H](CCN)C(=O)N(C)[C@@H]1C(=O)N[C@@H](C)C(=O)N[C@H](C(=O)NCC#N)Cc2cc(OCCN)c(O)c(c2)-c2cc1ccc2OCCN` (racemic) [Compound 562, (4S,7S,10S)-10-((S)-4-amino-2-(2-(4-(tert-butyl)phenyl)-4,6-dimethylpyrimidine-5-carboxamido)-N-methylbutanamido)-16,25-bis(2-aminoethoxy)-N-(cyanomethyl)-26-hydroxy-7-methyl-6,9-dioxo-5,8-diaza-1,2(1,3)-dibenzenacyclodecaphane-4-carboxamide], the minimum inhibitory concentration (MIC) was determined as 0.094 µM.
Turning to `Cc1nc(-c2ccc(C(C)(C)C)cc2)nc(C)c1C(=O)N[C@@H](CNS(N)(=O)=O)C(=O)N(C)[C@@H]1C(=O)N[C@@H](C)C(=O)N[C@H](C(=O)NCC#N)Cc2ccc(OC[C@H](O)CN)c(c2)-c2cc1cc(OC[C@H](O)CN)c2O` (racemic) [Compound 582, rac-(8S,11S,14S)-N-(cyanomethyl)-18-hydroxy-11-methyl-14-[methyl-[rac-(2S)-2-[[2-(4-tert-butylphenyl)-4,6-dimethyl-pyrimidine-5-carbonyl]amino]-3-(sulfamoylamino)propanoyl]amino]-10,13-dioxo-3,17-bis[rac-(2R)-3-amino-2-hydroxy-propoxy]-9,12-diazatricyclo[13.3.1.12,6]icosa-1(18),2(20),3,5,15(19),16-hexaene-8-carboxamide], the minimum inhibitory concentration (MIC) stood at 0.75 µM.
